Key:
[1] = target: Human CB1R (Cannabinoid receptor 1) (Homo sapiens, UniProt P21554); test: CB-1 in vitro cAMP (HTRF) assay; type: cell-based; settings: HEK cells, cAMP HTRF, 250 nM forskolin; mean where tested more than once; read-out: CB1 HEK_cAMP EC50
Description: (§1) CB1 and CB2 receptors are Gi-coupled GPCR. Activation of CB1 and CB2 receptors results in a decrease in cAMP production. An inverse agonist of the CB1 or CB2 receptor results in the opposite effect, an increase of cAMP production. The principle of this assay is based on HTRF® technology (Homogeneous Time-Resolved Fluorescence). The method is a competitive immunoassay between native cAMP produced by cells and the cAMP labeled with the fluorophore d2. The tracer binding is quantified by a Mab anti-cAMP labeled with Eu3+TBP-NHS Cryptate (supplied as part of the assay kit). The specific signal (i.e. energy transfer) is inversely proportional to the concentration of cAMP in the standard or sample.
Human CB1R (Cannabinoid receptor 1) was stably transfected in HEK-293 cells (DiscoveRx, cat: 93-0200C1). Human CB2R (Cannabinoid receptor 2) was stably transfected in HEK-293 cells (DiscoveRx, cat: 93-0201C1).
One day prior to experiments media was warmed to 37° C. and the cryo-stored cells were thawed in a 37° C. water bath. The cells were then added to media (10× volume) and the mixture was centrifuged at 1000 RPM for 5 min. The supernate was removed and the cells were re-suspended in media. A sample of the cell suspension was evaluated on a Cedex XS automated cell counter (Innovatis Systems) to determine viable cells/ml. Additional media was added to the cells to achieve a final cell density of 4E5 cells/mL. […] Cells were removed from Row P (location of cAMP standards). […] The cell plates were lidded and stored for 15 minutes in a hood, then transferred to an incubator (37° C., 5% CO2, 95% humidity) overnight.
Test compounds (60 μL, 10 mM) were added to Column 1 and 13 (A1 through N1 and A13 through L13). Test compounds were serially diluted 1/3 by transferring and mixing 20 μl sample with 40 μL DMSO.
DMSO (40 μL) was added to wells of 384 well V bottom polystyrene plate: O2 through O11, M14 through M23, N14 through N23, and O14 through O23. […] The control was serially diluted 1/3 by transferring and mixing 20 μl sample with 40 μL DMSO. This process resulted 11 doses per control, 10 mM to 0.5 μM.
Cells plated the day prior to the assay in clear bottom plates were viewed on an inverse microscope to ensure confluency in the range of 60-75%.
A FLEXDROP (Perkin Elmer) was cleaned with ethanol then water, and primed with Buffer 2. A 384 well V bottom polypropylene plate containing d2 labelled cAMP and a second 384 well V bottom polypropylene plate containing anti-cAMP was prepared (50 μl per well). Media as “dumped” from the cell plate and 30 μL Buffer 1 was added to each well using a Multidrop. The content of the cell plate was again “dumped” and 10 μL Buffer 2 was added to each well using a Flexdrop. […] The cell plate was mixed (Speed 6, Lab-Line Instruments Titer Plate Shaker) and centrifuged (1000 RPMs, 1 min). […] The cell plate was again mixed (speed 6) and centrifuged (1000 RPMs, 1 min). The cell plate was incubated for 30 minutes at room temperature (˜27° C.). The contents of row P were removed and the cAMP standard dilutions were added in duplicate to Row P (P1-12 and P13-24). After incubation, 6 μL d2 labelled cAMP and 6 μL of Anti-cAMP were added to all wells of the cell plate using a BioMek FX (Beckman Coulter). The cell plate was again mixed (speed 6) and centrifuged (1000 RPMs, 1 min) and was incubated for 60 minutes in the dark at room Temp (˜27° C.).
After this final incubation, the cell plate was read in HTRF mode (fluorescence at 665 nm and 620 nm) on an Envision plate Reader (Perkin Elmer). The Envision reader outputs a ratio of channel 1/channel 2 fluorescence×10,000 (Normalized signal (NS)). Amount of cAMP in nM was calculated for each well (based on NS) from a cAMP standard curve located on each plate (at P1-12 and P13-24). EC50 values were determined from a 4-point fit (Hill equation) of a single 11-point compound dosing. Hill slope was fixed at 1.0.

[2] = target: Human CB2R (Cannabinoid receptor 2) (Homo sapiens, UniProt P34972); test: CB-2 in vitro cAMP (HTRF) assay; type: cell-based; settings: HEK cells, cAMP HTRF, 250 nM forskolin; mean where tested more than once; read-out: CB2 HEK_cAMP EC50
Description: as §1
Human CB1R (Cannabinoid receptor 1) was stably transfected in HEK-293 cells (DiscoveRx, cat: 93-0200C1). Human CB2R (Cannabinoid receptor 2) was stably transfected in HEK-293 cells (DiscoveRx, cat: 93-0201C1). Cell cultures were maintained in media: DMEM (Invitrogen Cat#12430-054) supplemented with 10% HI FBS (Invitrogen Cat#16140-071), 1% L-glutamine (Invitrogen Cat#25030-081), 0.2 mg/ml Hygromycin B (Invitrogen Cat#10687-010), 600 μg/mL G418 (Invitrogen Cat#10131-035), and 1× Penn/Strep (Invitrogen 15140-122). After cell expansion, aliquots were cryo-stored in media containing 5% DMSO (Pierce Cat#20684).
One day prior to experiments media was warmed to 37° C. and the cryo-stored cells were thawed in a 37° C. water bath. The cells were then added to media (10× volume) and the mixture was centrifuged at 1000 RPM for 5 min. The supernate was removed and the cells were re-suspended in media. A sample of the cell suspension was evaluated on a Cedex XS automated cell counter (Innovatis Systems) to determine viable cells/ml. Additional media was added to the cells to achieve a final cell density of 4E5 cells/mL. The cells were then plated into 384 well PDL white solid bottom plates (Greiner, Cat#781945) at 20 μL per well using a Multidrop (Thermo Scientific). Cells were removed from Row P (location of cAMP standards). Two columns of cells were plated into a clear bottom 384 well PDL coated plate (Greiner, Cat#781944) to view confluence the day of the assay. The cell plates were lidded and stored for 15 minutes in a hood, then transferred to an incubator (37° C., 5% CO2, 95% humidity) overnight.
DMSO was added to all wells of 384 well V bottom polystyrene plate (Greiner, Cat#781280) except to columns 1 and 13, rows O and P and wells M13-M23 and N13-N23. Test compounds (60 μL, 10 mM) were added to Column 1 and 13 (A1 through N1 and A13 through L13). Test compounds were serially diluted 1/3 by transferring and mixing 20 μl sample with 40 μL DMSO.
DMSO (40 μL) was added to wells of 384 well V bottom polystyrene plate: O2 through O11, M14 through M23, N14 through N23, and O14 through O23. AM630 (also known as [6-iodo-2-methyl-1-[2-(4-morpholinyl)ethyl]-1H-indol-3-yl](4-methoxyphenyl)-methanone, Cayman Chemical, Cat#10006974) (60 μL, 10 mM) was added to O1; and 1-(2,4-dichlorophenyl)-7-[(4-fluorophenyl)methylene]-4,5,6,7-tetrahydro-N-1-piperidinyl-1H-benzimidazole-3-carboxamide (60 μL, 10 mM) was added to N13. The control was serially diluted 1/3 by transferring and mixing 20 μl sample with 40 μL DMSO. This process resulted 11 doses per control, 10 mM to […].
Cells plated the day prior to the assay in clear bottom plates were viewed on an inverse microscope to ensure confluency in the range of 60-75%. […]

Chain of Human CB1R (Cannabinoid receptor 1) (P21554 whole entry): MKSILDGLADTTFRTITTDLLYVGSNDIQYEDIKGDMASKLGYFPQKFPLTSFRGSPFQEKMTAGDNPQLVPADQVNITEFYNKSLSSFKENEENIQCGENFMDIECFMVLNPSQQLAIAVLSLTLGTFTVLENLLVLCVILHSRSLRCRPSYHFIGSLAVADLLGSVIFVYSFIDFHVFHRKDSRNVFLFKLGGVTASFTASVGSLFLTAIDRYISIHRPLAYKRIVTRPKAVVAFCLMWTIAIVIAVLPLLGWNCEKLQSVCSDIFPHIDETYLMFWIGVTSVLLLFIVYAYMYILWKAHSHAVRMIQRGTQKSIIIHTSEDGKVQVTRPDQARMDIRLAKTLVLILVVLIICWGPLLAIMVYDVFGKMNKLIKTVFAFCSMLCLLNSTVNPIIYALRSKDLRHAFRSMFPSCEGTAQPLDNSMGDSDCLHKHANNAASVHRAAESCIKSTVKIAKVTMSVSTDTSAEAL
Chain of Human CB2R (Cannabinoid receptor 2) (P34972 whole entry): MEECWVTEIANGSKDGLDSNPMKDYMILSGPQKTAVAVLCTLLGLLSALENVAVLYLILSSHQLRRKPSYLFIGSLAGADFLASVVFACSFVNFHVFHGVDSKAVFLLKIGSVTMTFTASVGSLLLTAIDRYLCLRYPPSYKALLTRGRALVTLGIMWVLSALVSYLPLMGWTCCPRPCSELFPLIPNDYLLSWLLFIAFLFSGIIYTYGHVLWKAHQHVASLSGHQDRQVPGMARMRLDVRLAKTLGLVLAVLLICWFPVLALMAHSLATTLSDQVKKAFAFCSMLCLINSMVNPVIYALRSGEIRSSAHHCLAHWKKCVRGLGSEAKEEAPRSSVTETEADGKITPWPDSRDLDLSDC

Compound | EC50 [1] | EC50 [2]
O=C(O)c1ccc(-c2ccc(CCn3c(C4CC4)nc4ccc(C(c5ccc(Cl)cc5)c5ccc(Cl)cc5)cc43)cc2)cc1 [Example 25] | 1.65 µM | > 10 µM
COC(=O)c1cccc(OCCn2c(C3CC3)nc3ccc(C(c4ccc(Cl)cc4)c4ccc(Cl)cc4)cc32)c1 [Example 26] | 0.103 µM | 3.31 µM
Clc1ccc(C(c2ccc(Cl)cc2)c2ccc3nc(C4CC4)n(CCc4ccc(Br)cc4)c3c2)cc1 [Example 27] | 0.011 µM | > 10 µM
COC(=O)c1ccc(OCCn2c(C3CC3)nc3ccc(C(c4ccc(Cl)cc4)c4ccc(Cl)cc4)cc32)nc1 [Example 34] | 0.0375 µM | 6.8 µM
O=C(O)c1ccc(OCCn2c(C3CC3)nc3ccc(C(c4ccc(Cl)cc4)c4ccc(Cl)cc4)cc32)cc1 [Example 35] | 3.34 µM | 4.36 µM
COC(=O)c1ccc(OCCn2c(C3CC3)nc3ccc(C(c4ccc(Cl)cc4)c4ccc(Cl)cc4)cc32)cc1 [Example 36] | 0.0854 µM | 0.869 µM
Oc1ccc(CCn2c(C3CC3)nc3ccc(C(c4ccc(Cl)cc4)c4ccc(Cl)cc4)cc32)cc1 [Example 37] | 0.0876 µM | 7.26 µM
CC(C)(C)OC(=O)N1CCC(n2c(C3CC3)nc3ccc(C(O)(c4ccc(Cl)cc4)c4ccc(Cl)cc4)cc32)CC1 [Example 41] | 0.0306 µM | > 42 µM
O=S(=O)(CCN1CCNCC1)N1CCC(n2c(C3CC3)nc3ccc(C(c4ccc(Cl)cc4)c4ccc(Cl)cc4)cc32)CC1 [Example 45] | 0.593 µM | > 42 µM
NCCS(=O)(=O)N1CCC(n2c(C3CC3)nc3ccc(C(c4ccc(Cl)cc4)c4ccc(Cl)cc4)cc32)CC1 [Example 46] | 0.45 µM | > 42 µM
CCC(c1cccc(C(=O)O)c1)N1CCC(n2c(C3CC3)nc3ccc(C(c4ccc(Cl)cc4)c4ccc(Cl)cc4)cc32)CC1 (centres unmarked) [Example 49] | 0.0085 µM | 4.4 µM
Nc1cccc(S(=O)(=O)N2CCC(n3c(C4CC4)nc4ccc(C(c5ccc(Cl)cc5)c5ccc(Cl)cc5)cc43)CC2)c1 [Example 52] | 0.0092 µM | > 10 µM
O=S(=O)(c1ccc(CO)o1)N1CCC(n2c(C3CC3)nc3ccc(C(c4ccc(Cl)cc4)c4ccc(Cl)cc4)cc32)CC1 [Example 55] | 0.0123 µM | 2.74 µM
CC(c1cccc(O)c1)N1CCC(n2c(C3CC3)nc3ccc(C(c4ccc(Cl)cc4)c4ccc(Cl)cc4)cc32)CC1 (centres unmarked) [Example 56] | 0.0193 µM | > 10 µM
CC(c1cc(C(=O)O)ccn1)N1CCC(n2c(C3CC3)nc3ccc(C(c4ccc(Cl)cc4)c4ccc(Cl)cc4)cc32)CC1 (centres unmarked) [Example 59] | 0.0038 µM | > 21 µM
O=C(Oc1ccccc1)N1CCC(n2c(C3CC3)nc3ccc(C(c4ccc(Cl)cc4)c4ccc(Cl)cc4)cc32)CC1 [Example 61] | 0.019 µM | > 21 µM
O=C(O)CN1CCC(n2c(C3CC3)nc3ccc(C(c4ccc(Cl)cc4)c4ccc(Cl)cc4)cc32)CC1 [Example 63] | > 10 µM | > 21 µM
COC(=O)CN1CCC(n2c(C3CC3)nc3ccc(C(c4ccc(Cl)cc4)c4ccc(Cl)cc4)cc32)CC1 [Example 64] | 0.0026 µM | 2.35 µM

Now from value to molecule:

EC50 [1] | EC50 [2] | Compound
0.0215 µM | > 10 µM | Oc1cccc(N[C@H]2CC[C@H](n3c(C4CC4)nc4ccc(C(c5ccc(Cl)cc5)c5ccc(Cl)cc5)cc43)CC2)c1 [Example 28]
0.0402 µM | 1.62 µM | O=C(O)c1ccc(N[C@H]2CC[C@H](n3c(C4CC4)nc4ccc(C(c5ccc(Cl)cc5)c5ccc(Cl)cc5)cc43)CC2)cc1 [Example 30]
0.15 µM | 3 µM | O=C(O)c1cccc(N[C@H]2CC[C@H](n3c(C4CC4)nc4ccc(C(c5ccc(Cl)cc5)c5ccc(Cl)cc5)cc43)CC2)c1 [Example 31]
0.0395 µM | 2.16 µM | O=C(O)c1ccc(N[C@H]2CC[C@@H](n3c(C4CC4)nc4ccc(C(c5ccc(Cl)cc5)c5ccc(Cl)cc5)cc43)CC2)cc1 [Example 32]
4.3 µM | 1.7 µM | O=C(O)c1ccc(CCn2c(C3CC3)nc3ccc(C(c4ccc(Cl)cc4)c4ccc(Cl)cc4)cc32)cc1 [Example 38]
0.104 µM | 5.12 µM | O=C(O)c1cccc(NC2CCC(n3c(C4CC4)nc4ccc(C(c5ccc(Cl)cc5)c5ccc(Cl)cc5)cc43)CC2)c1 (centres unmarked) [Example 40]
0.0908 µM | 8.7 µM | O=C(O)c1ccc(S(=O)(=O)N[C@H]2CC[C@@H](n3c(C4CC4)nc4ccc(C(c5ccc(Cl)cc5)c5ccc(Cl)cc5)cc43)CC2)cc1 [Example 42]
0.113 µM | 12.1 µM | O=C(O)c1cccc(S(=O)(=O)N[C@H]2CC[C@@H](n3c(C4CC4)nc4ccc(C(c5ccc(Cl)cc5)c5ccc(Cl)cc5)cc43)CC2)c1 [Example 43]
0.0146 µM | 2.44 µM | O=C(O)c1cccc(OCCN2CCC(n3c(C4CC4)nc4ccc(C(c5ccc(Cl)cc5)c5ccc(Cl)cc5)cc43)CC2)c1 [Example 44]
0.0481 µM | > 10 µM | O=C(Nc1ccccc1)N1CCC(n2c(C3CC3)nc3ccc(C(c4ccc(Cl)cc4)c4ccc(Cl)cc4)cc32)CC1 [Example 50]

— patent US20190031618A1, “BENZIMIDAZOLE DERIVATIVES USEFUL AS CB-1 INVERSE AGONISTS” (Janssen Pharmaceutica NV, priority 2015, published 2019)
